One experiment has as its system Erk. Nature of the experiment: Western blot of phospho-Erk in A172 cell lysates. In kind it is cell-based, human. The note with it: inhibitor added 10 minutes prior to STI1. A general note: A western blot detects proteins with antibodies after separation by electrophoresis.
Experiment [1] concerns A172 cells. Nature of the experiment: [3H]-thymidine incorporation proliferation assay in A172 cells. Type of experiment: cell-based, human. The note with it: 24 hr; for promotion of proliferation by peptide alone: serum-free media, FIG. 6. For orientation: Uptake of a labelled nucleoside into DNA is a usual measure of proliferation.
In experiment [2] the target is cellular prion protein (PrP^C), endogenous, on human glioblastoma cells (A172, U87MG) (human (A172 human glioblastoma cell line)) (UniProt P04156). Nature of the experiment: cell-based or functional assay.
The test system of another experiment is U87MG cells. In words: BrdU incorporation assay in U87MG cells. Type of experiment: cell-based, human. The note with it: 24 hours; for effect of peptide on cell proliferation mediated by STI1 (BrdU): peptide 0.17 μM or 8 μM plus STI1 0.17 μM, FIG. 8; for effect of TAT peptide on cell proliferation mediated by STI1 (BrdU): TAT peptide 0.17 μM plus STI1 0.17 μM, FIG. 9; for effect of peptide on STI1-promoted U87MG proliferation (BrdU): FIG. 7B. On the procedure: Cells were plated overnight on 24-well plates with glass cover slips, at a density of 1.5×10^4 cells per well, with DMEM with 10% FCS at 37° C. Plates were washed 3 times with PBS and were maintained in DMEM F12 for 48 hours. Cells were then treated for 24 hours with DMEM/10% FCS or DMEM plus mouse recombinant STI1 (170 nM); recombinant STI1 (170 nM) plus mouse peptide STI1230-245(ELGNDAYKKKDFDKAL) (SEQ ID NO: 1) or its human homologue peptide Hop230-245(ELGNDAYKKKDFDTAL) (SEQ ID NO: 2) (170 nM or 8 μM); STI1 (170 nM) plus STI1/Hop61-76 (GCKTVDLKPDWGKGYS) (SEQ ID NO: 3) irrelevant peptide (170 nM or 8 μM); or each one of the peptides alone. Two hours before the end of treatment, cells received a pulse of BrdU (35 μM) pulse and were fixed with 4% paraformaldehyde.
Coverslips were treated with 2N HCl for 30 minutes. The reagent was then removed and borate buffer applied (boric acid 0.1M, sodium hydroxide 0.15M), pH 8.4, for 10 minutes. Then, cells were treated with PBS plus 0.2% Triton X-100 for 15 minutes. The blocking step was made with PBS/0.2% Triton with 20% horse serum, for 1 hour. Primary anti-BrdU biotinylated antibodies (1:100) were applied overnight (diluted in PBS/0.2% Triton with 1% horse serum). Coverslips were washed 3 times with PBS and incubated for one hour with Strepta-Alexa 488 and DAPI reagents (1:1000), washed more 3 times with PBS and assembled to slides.
There were taken at least four microscopic fields of each treatment on WB filter, ranging from 330-385 nm (DAPI), plus their respective BrdU images, on WIB filter, 450-480 nm using DP controller software, Olympus. Picture files were analyzed on ImageJ software, and the percentage of BrdU positive nuclei in respect to total nuclei number (DAPI) was calculated using the Analyze Particles tool.
FIG. 7B: Treatment of U87MG cells with STI1230-245 peptide abrogates cell proliferation mediated by STI1. U87MG human glioblastoma cells were plated at 1.5×10^4 confluence on glass cover slips of 12 mm. After overnight adherence, cells were starved on serum-free media for 48 hours. Cells were subjected to distinct treatments (see picture) for 24 hours, and a BrdU pulse of 32 μM was performed on the last 2 hours of treatment. Immunofluorescence and cell imaging were done in order to permit absolute cell counting. Values represent percentage of BrdU positive cell nuclei from total number of cell nuclei. FCS (fetal calf serum), STI1/Hop (0.17 μM or 8 μM) and/or STI1230-245 (0.17 μM or 8 μM) and/or STI1/Hop61-76 (irrelevant N-terminus STI1/Hop peptide, 0.17 μM or 8 μM). *Statistically significant from control (without treatment), p<0.001. Bars shown as mean±SEM.
FIG. 8: Hop230-245 peptide inhibits the U87MG cell proliferation mediated by STI1. U87MG human glioblastoma cells were plated at 1.5×10^4 confluence on glass cover slips of 12 mm. After overnight adherence, cells were starved on serum-free media for 48 hours. Cells were subjected to distinct treatments (see picture) for 24 hours, and a BrdU pulse of 32 μM was performed on the last 2 hours of treatment. Immunofluorescence and cell imaging were done in order to permit absolute cell counting. Values represent percentage of BrdU positive cell nuclei from total number of cell nuclei. STI1 (0.17 μM) and/or Hop230-245 (0.17 μM or 8 μM) and/or STI1/Hop61-76 (irrelevant STI1/Hop61-76, 0.17 μM or 8 μM). *Statistically significant from control (without treatment), p<0.01. Bars shown as mean±SEM.
FIG. 9: Treatment of U87MG cells with TAT-STI1230-245 and TAT-Hop230-245 peptides inhibits cell proliferation mediated by STI1. U87MG human glioblastoma cells were plated at 1.5×10^4 confluence on glass cover slips of 12 mm. After overnight adherence, cells were starved on serum-free media for 48 hours. Cells were subjected to distinct treatments (see picture) for 24 hours, and a BrdU pulse of 32 μM was performed on the last 2 hours of treatment. Immunofluorescence and cell imaging were done in order to permit absolute cell counting. […]

A further experiment deals with rats. Nature of the experiment: One-trial step-down inhibitory avoidance (IA) long-term memory test. In kind it is in vivo, rat. The text has this: Rats were trained in a one-trial, step-down IA paradigm, a hippocampal-dependent learning task in which stepping down from a platform present in a given context is associated with a foot shock, resulting in an increase in step-down latency when the animal is brought back to the training chamber for a retention test (Cammarota et al., 2004). The IA apparatus was a 50×25×25 cm Plexiglas box with a 5-cm-high, 8-cm-wide and 25-cm-long platform on the left end of a series of bronze bars that constitutes the floor of the box. During training, each animal was gently placed on the platform facing the left rear corner of the training box. When an animal stepped down and placed all four of its paws on the grid, it received a 2-s, 0.5-mA foot shock and was then immediately withdrawn from the training box. Animals were replaced in the IA box for retention testing 90 min (for short-term memory (STM)), or 24 h later (for long-term memory (LTM)); their latency to step down onto the grid was recorded. The difference between the training and test-session step-down latencies was taken as a measure of retention. Better memory for the training was inferred from longer retention latencies (Bernabeu et al., 1997; Izquierdo et al., 1997). The maximum retention latency allowed was 180 s, at which time the animal was taken out of the IA box if it had not stepped down and given a score of 180 s. Full details of the experimental protocols can be found in Coitinho et al., 2007.
The data obtained in tests of the effect of peptides on rat long-term memory are presented as medians±interquartile range and were analyzed by the Kruskal-Wallis nonparametric test followed by Dunn's post-hoc (n=10 to 13 animals for each treatment group). In all comparisons, p<0.05 was taken as a significant difference.
FIG. 11: STI1230-245 peptide and TAT-STI1230-245 peptides are capable of increasing long-term memory. The latency to step down before treated rats was recorded (Training) and immediately after training animals received a bilateral hippocampal infusion of saline, STI1230-245 peptide, TAT-STI1230-245 or TAT-STI161-76 irrelevant peptide at the concentration of 15 ng/μl in a total volume of 0.5 μl/side. The latency to step down was tested again 24 hours later (LTM test) and measures Long-term memory (LTM). Data are shown as mean±SE of step-down latencies (n=12 rats in each group). *p<0.05 vs control.

The test system of experiment [3] is A172 cells. In words: BrdU incorporation assay in A172 cells. In kind it is cell-based, human. The following applies: peptide 170 nM plus STI1 170 nM, 18 hours, FIG. 7A. On the procedure:
Cells were plated overnight on 24-well plates with glass coverslips, at a density of 1×10^4 cells per well, in DMEM high glucose plus 10% FCS at 37° C. Plates were washed 3 times with PBS and were maintained in DMEM without FCS for 30 hours. Cells were then treated for 18 hours with DMEM/10% FCS or DMEM plus mouse recombinant STI1 (170 nM); STI1 (170 nM) plus STI1230-245 peptide (170 nM); or STI1 (170 nM) plus STI161-76 irrelevant peptide (170 nM). Thirty minutes before the end of treatment, cells received a pulse of BrdU (35 μM) and were fixed with 4% paraformaldehyde.
Coverslips were treated with 2N HCl for 30 minutes. The reagent was then removed and borate buffer applied (boric acid 0.1M, sodium hydroxide 0.15M), pH 8.4, for 10 minutes. Then, cells were treated with PBS plus 0.2% Triton X-100 for 15 minutes. The blocking step was made with PBS/0.2% Triton with 20% horse serum, for 1 hour. […]
There were taken at least four microscopic fields of each treatment on WB filter, ranging from 330-385 nm (DAPI), plus their respective BrdU images, on WIB filter, 450-480 nm using DP controller software, Olympus. Picture files were analyzed on ImageJ software, and the percentage of BrdU positive nuclei in respect to total nuclei number (DAPI) was calculated using the Analyze Particles tool. […]

On to `N#CC(=C(/N)Sc1ccccc1N)/C(C#N)=C(\N)Sc1ccccc1N` [U0126], for which, in the experiment with Erk, the “effect of co-treatment on STI1-induced Erk activation” value was “abolished”. In addition, the “effect of inhibitor on STI1-induced proliferation” value with A172 cells [1] (U0126 10 μM or LY294002 5 μM added 10 minutes before STI1 170 nM) is “completely abolished STI1-induced proliferation”.
In experiment [2], “recombinant mouse stress-inducible phosphoprotein 1 (STI1), wild type (from UniProt Q60864 1-543) (ligand)” yielded a BrdU incorporation (proliferation) of A172 cells of 1.5 fold; a BrdU incorporation (proliferation) of U87MG cells of 3 fold; a [3H]-thymidine incorporation of A172 cells, concentration of the maximum effect of 170 nM.
For the molecule “ELGNDAYKKKDFDTAL (listed as Homo sapiens) [Hop230-245, human homologue of mouse STI1230-245 peptide]”, the “effect of peptide on cell proliferation mediated by STI1 (BrdU)” value (“effect of peptide … by STI1 (BrdU)” below) in the experiment on U87MG cells was “able to abrogate the cell proliferation mediated by STI1”. The “effect in memory consolidation” value in the experiment with rats (rats, FIG. 11) is recorded as “potent effect in memory consolidation”.
As to “YGRKKRRQRRRELGNDAYKKKDFDTAL (conjugate of seq id nos 2 and 8) [TAT-Hop230-245]”, in the experiment with U87MG cells, the “effect of TAT peptide on cell proliferation mediated by STI1 (BrdU)” value is recorded as “able to block cell proliferation mediated by STI1”. In addition, the “effect in memory consolidation” value in the experiment on rats (rat, in vivo) is listed as “potent effect in memory consolidation”.
For “ELGNDAYKKKDFDKAL (listed as Mus musculus) [STI1230-245]”, the “effect of peptide on STI1-induced proliferation (BrdU)” value in the experiment with A172 cells [3] was “inhibited STI1-induced proliferation”. The “promotion of proliferation by peptide alone” value in the experiment with A172 cells [1] is “unable by itself to promote proliferation”. Besides, the “effect of peptide … by STI1 (BrdU)” value with U87MG cells was “able to abrogate the cell proliferation mediated by STI1”. For the same molecule, the “effect of peptide on STI1-promoted U87MG proliferation (BrdU)” value in the experiment with U87MG cells (peptide 170 nM plus STI1 170 nM) and in the experiment on U87MG cells (peptide 8 μM plus STI1 170 nM) was “blocked” throughout. The “long-term memory (retention latency, LTM test 24 hours after training)” value with rats (bilateral hippocampal infusion immediately after training, 15 ng/μl, 0.5 μl/side) is reported as “greatly enhanced long-term memory”. For the same molecule, the “effect in memory consolidation” value in the experiment on rats (rats, FIG. 11) is recorded as “potent effect in memory consolidation”.
For “YGRKKRRQRRRELGNDAYKKKDFDKAL (conjugate of seq id nos 1 and 8) [TAT-STI1230-245]”, the “effect of TAT peptide on cell proliferation mediated by STI1 (BrdU)” value in the experiment with U87MG cells is on record as “able to block cell proliferation mediated by STI1”. For the same molecule, in the experiment with rats (rat, in vivo), the “effect in memory consolidation” value is given as “potent effect in memory consolidation” and the “long-term memory (retention latency, LTM test 24 hours after training)” value is “greatly enhanced long-term memory”.
As to “GCKTVDLKPDWGKGYS (listed as Homo sapiens) [STI1/Hop61-76, N-terminus irrelevant STI1/Hop peptide, reference compound]”, in the experiment on A172 cells [3], the “effect of peptide on STI1-induced proliferation (BrdU)” value is given as “no effect”. For the same molecule, in the experiment on A172 cells [1], the “promotion of proliferation by peptide alone” value is recorded as “did not enhance proliferation”. Also, the “effect of peptide … by STI1 (BrdU)” value in the experiment with U87MG cells was “had no effect upon proliferation mediated by STI1”.

(Values after patent US8802631B2, “Peptides and methods for the treatment of gliomas and other cancers” (Ludwig Institute for Cancer Research Ltd., priority 2007, dated 2014).)
